8 compounds from the NIST ThermoML archive (doi:10.1021/je0302295) can be followed below.

± gives the expanded uncertainty stated by the source.

Data set [1] in a line: refractive index (Na D-line) (dimensionless). Conditions: 293.15 K; 101.33 kPa; Liquid; Standard Abbe refractometry.
For data set [2] the following is noted: 293.15 K, 101.33 kPa, Liquid.
Data set [3] can be described thus: activity coefficient (dimensionless); of the first substance listed, at infinite dilution; xn = mol fraction of the nth substance listed. Conditions: Liquid, Static method, x1 = 0.

Usually refractive index stands for a measure of how strongly the sample bends light. A word on the mass density: it is mass per unit of volume. As to `CCCCO` [butan-1-ol], the refractive index in data set [1] amounted to 1.3992 ± 0.0007. Also, in data set [2], the mass density amounted to 809.68 ± 0.29 kg/m3.
As to `CCCCO` [butan-1-ol] + CCCCCCC, the activity coefficient in data set [3] (303.15 K) was found to be 31.3 ± 3; in data set [3] (313.15 K), 24.5 ± 1; in data set [3] (323.15 K) it was 19.3 ± 1; in data set [3] (333.15 K), 14.6 ± 0.8; in data set [3] (343.15 K) it was 11.6 ± 0.4.
Taken in the same sequence, the figures for `CCCCO` [butan-1-ol] + CCCCCCCC were 32.1 ± 1.6, 23.9 ± 0.8, 18.4 ± 0.4, 14.5 ± 0.4 and 11.2 ± 0.8.
`CCCCCCC` [heptane]: in data set [1], the refractive index is 1.3876 ± 0.0007. Also, the mass density in data set [2] (Vibrating tube method) came out at 683.79 ± 0.21 kg/m3.
Taken in the same sequence, the figures for `CCCCCCCC` [octane] were 1.3973 ± 0.0007 and 702.76 ± 0.2 kg/m3.
As to `CCCO` [propan-1-ol], in data set [1], the refractive index was found to be 1.3855 ± 0.0007. The mass density in data set [2] amounted to 803.55 ± 0.29 kg/m3.
In the case of `CCCO` [propan-1-ol] + CCCCCCC, the activity coefficient came to 36.2 ± 1.1 in data set [3] (303.15 K); 27.2 ± 0.7 in data set [3] (313.15 K); 21.2 ± 1 in data set [3] (323.15 K); 15.8 ± 0.4 in data set [3] (333.15 K); 12.5 ± 0.2 in data set [3] (343.15 K).
For `CCCO` [propan-1-ol] + CCCCCCCC, in that order: 34.2 ± 1.8, 26.5 ± 1.4, 20.5 ± 0.5, 16.2 ± 0.3 and 12.9 ± 0.2.
